According to paper PMC7116141 (Journal of the American Chemical Society, 2006):

Biological target: T1, human OGA (hOGA, O-GlcNAcase) (Homo sapiens, UniProt O60502)
T1 sequence (O60502 1-916): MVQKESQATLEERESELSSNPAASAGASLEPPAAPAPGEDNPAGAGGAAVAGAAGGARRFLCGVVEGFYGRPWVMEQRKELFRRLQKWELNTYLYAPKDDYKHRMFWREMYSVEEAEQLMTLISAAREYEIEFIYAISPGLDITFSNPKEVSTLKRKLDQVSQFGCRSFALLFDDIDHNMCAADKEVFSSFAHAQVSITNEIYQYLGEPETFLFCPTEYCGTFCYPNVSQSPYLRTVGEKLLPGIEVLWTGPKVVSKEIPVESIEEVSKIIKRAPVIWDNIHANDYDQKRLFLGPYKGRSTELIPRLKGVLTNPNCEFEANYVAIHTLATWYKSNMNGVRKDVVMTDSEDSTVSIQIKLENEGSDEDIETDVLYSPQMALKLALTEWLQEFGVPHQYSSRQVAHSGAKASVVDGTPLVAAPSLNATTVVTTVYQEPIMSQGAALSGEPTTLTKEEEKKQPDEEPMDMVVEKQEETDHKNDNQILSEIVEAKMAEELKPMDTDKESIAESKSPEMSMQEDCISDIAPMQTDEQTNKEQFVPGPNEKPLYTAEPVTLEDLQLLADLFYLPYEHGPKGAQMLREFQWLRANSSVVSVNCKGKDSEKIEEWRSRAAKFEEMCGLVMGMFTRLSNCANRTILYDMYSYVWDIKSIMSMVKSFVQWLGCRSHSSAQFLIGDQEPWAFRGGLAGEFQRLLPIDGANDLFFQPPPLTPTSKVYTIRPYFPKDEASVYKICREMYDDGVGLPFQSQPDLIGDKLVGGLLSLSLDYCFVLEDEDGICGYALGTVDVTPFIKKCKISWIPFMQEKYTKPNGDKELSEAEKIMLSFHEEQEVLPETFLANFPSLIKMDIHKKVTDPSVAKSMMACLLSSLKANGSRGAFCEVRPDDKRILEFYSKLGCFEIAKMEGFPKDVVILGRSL
Test: anti-O-GlcNAc immunoblot of treated HEK […] cells
Type: cell-based

## CC(C)C(=O)N[C@H]1c2nc(CCc3ccccc3)cn2[C@H](CO)[C@@H](O)[C@@H]1O [compound 1, GlcNAcstatin]
  anti-O-GlcNAc immunoblot of treated HEK 293 cells (qualitative): is active against human OGA (hOGA) in human cell lines
